Measurements from patent US8609651B2, “Pharmaceutical compositions of benzodiazepines and method of use thereof” (Jazz Pharmaceuticals, Inc., priority 2006, dated 2013).
≈ marks a conversion by molar mass, not a printed value.

Key:
[1] = Solubility of clonazepam in neat solvents
Protocol: The solubility of clonazepam in a number of neat solvents was determined using standard methods.

[2] = Human safety and tolerability (side effects); format: in vivo
Text: Somnolence was reported by 10 of 15 (approximately 67%) subjects after intranasal dosing and 13 of 15 (approximately 87%) subjects after oral dosing. Approximately 93% of the subjects reported somnolence or sedation ( 11/15 for somnolence and 3/15 for sedation) after intravenous dosing. Nasal discomfort was reported by 12 of 15 subjects (approximately 80%) after intranasal dosing.

[3] = Solubility of benzodiazepines in DEGEE (Transcutol) at 25° C. and −16° C.; settings: organic solvent or mixture, thermodynamic from solid
Protocol: The solubilities of several other benzodiazepines were measured in DEGEE (diethylene glycol monoethyl ether, transcutol) by the techniques of Example 1. Initially, 10 mg of the drug was loaded in the glass vial and 130-μL of DEGEE was added, and the samples were sonicated for 10 minutes. […] Samples were stored at −16° C. and 25° C. overnight, and centrifuged (5000 rpm, 2 minutes, −10° C. and 23° C. for the −16° C. and 25° C. samples, respectively). […] Clonazepam was measured by UV at 350 nm; all others at 300 nm.

[4] = Human pharmacokinetic study (oral, intravenous, intranasal cross-over); settings: 1 mg; for AUC / Cmax / Tmax / bioavailability: male, plasma; for bioavailability: other: intranasal, intranasal 1 mg
Protocol: The human pharmacokinetics, safety, and tolerability of the benzodiazepines compositions of the present invention formulated for intranasal delivery for therapeutic applications are evaluated using standard clinical procedures. Benzodiazepine compositions formulated for intranasal delivery are provided, for example, for application by the participants to intranasal mucosa.
A primary objective of initial studies in humans is to determine and compare pharmacokinetic profiles of three dosage forms of a benzodiazepine: oral, i.v., and intranasal, following single administration. An example of such a study in humans is a cross-over study performed in 12 healthy male volunteers. Plasma and urine level of clonazepam and 7-amino-clonazepam are determined, for example, using HPLC and UV detection. […] Further the initial studies in humans are used to determine local tolerability of intranasal formulation using questionnaire and the Visual Analog Scale (VAS). VAS is a validated instrument that has been used in numerous studies to quantify subjective […]. In addition, cognitive, sleepiness and mood effects are evaluated using questionnaires and scales (see, e.g., Example 10 below). Further, attention and vigilance may be evaluated using, for example, LEEDS Psychomotor Multiple Choice Reaction Time (MCRT) testing.
A human pharmacokinetic study was carried out as described in Example 8.
15 young, healthy male volunteers received a single dose of 1 mg clonazepam by oral, intravenous and intranasal routes in a three-period cross-over design.

SMILES: O=C1CN=C(c2ccccc2Cl)c2cc([N+](=O)[O-])ccc2N1 [Clonazepam, 5-(2-chlorophenyl)-1,3-dihydro-7-nitro-2H-1,4-benzodiazepin-2-one]
- solubility ([1]; PEG 200 (neat solvent), organic solvent or mixture): 30.3 mg/mL (≈ 96 mM)
- solubility ([1]; PEG 300 (neat solvent), organic solvent or mixture): 37 mg/mL (≈ 117 mM)
- solubility ([1]; Transcutol (neat solvent), organic solvent or mixture): 38.7 mg/mL (≈ 123 mM)
- solubility ([1]; glycofurol (neat solvent), organic solvent or mixture): 67.3 mg/mL (≈ 213 mM)
- solubility ([1]; propylene glycol (neat solvent), organic solvent or mixture): 3.4 mg/mL (≈ 10.8 mM)
- solubility ([1]; triacetin (neat solvent), organic solvent or mixture): 5.8 mg/mL (≈ 18.4 mM)
- solubility ([1]; water): < 0.1 mg/mL
- subjects reporting somnolence ([2]; after intranasal dosing, 10 of 15): approximately 67%
- subjects reporting nasal discomfort ([2]; after intranasal dosing, 12 of 15): approximately 80%
- subjects reporting somnolence or sedation ([2]; after intravenous dosing): Approximately 93%
- subjects with sedation ([2]; after intravenous dosing): 3/15
- subjects with somnolence ([2]; after intravenous dosing): 11/15
- subjects reporting somnolence ([2]; after oral dosing, 13 of 15): approximately 87%
- changes in laboratory parameters ([2]; human): no clinically relevant changes
- Somnolence reported in the study ([2]; human, all routes): 75.6%
- nasal discomfort reported in the study ([2]; human, all routes): 26.7%
- solubility ([3]; 25 °C): 38.9 mg/mL (≈ 123 mM)
- solubility ([3]; -16 °C): 35.3 mg/mL (≈ 112 mM)
- Cmax of the intranasal route as % of the intravenous route [4]: 17%
- Cmax of the intranasal route as % of the oral route [4]: 93%
- AUC ([4]; inhaled or intranasal): ~58 ng·h/mL
- Cmax ([4]; inhaled or intranasal): 7.12 ± 3.81 ng/mL
- Tmax ([4]; inhaled or intranasal): 12 min
- Tmax ([4]; intravenous): 6 min
- AUC ([4]; iv): ~106 ng·h/mL
- Cmax ([4]; iv): 42.5 ± 10.8 ng/mL
- bioavailability ([4]; bioavailability relative to intravenous): 55%
- bioavailability ([4]; bioavailability relative to oral): 61%
- AUC ([4]; po): ~95 ng·h/mL
- Cmax ([4]; po): 7.64 ± 1.74 ng/mL
- Tmax ([4]; po): 120 min
